Measured values as given in patent US5610310A, “Cyclic lipid derivatives as potent PAF antagonists” (Pohang Iron & Steel Co., Ltd, priority 1995, dated 1997).

Columns and labels:
[1] = tested on: PAF-induced [^14 C]-serotonin release, rabbit platelets; experiment: Inhibitory action on PAF-induced [^14 C]-serotonin release; type: cell-based, rabbit (New Zealand white); conditions: Oryctolagus cuniculus, Platelet, PAF 1×10^-9 M; for inhibition at 0.2 µM: test compound 2 × 10^-7 M; for inhibition at 0.05 µM: test compound 5 × 10^-8 M
Experimental: Inhibitory action on PAF-induced [^14 C]-serotonin release
Blood was collected from the hearts of conscious New Zealand white male rabbits weighing 2 to 3 kg. The blood was immediately subjected to a centrifuge at 1400 rpm for 10 minutes to obtain platelet rich plasma(PRP).PRP was incubated with a trace mount of [^14 C]-serotonin for 20 minutes at 22° C. Prelabelled platelets were prepared by centrifugation at 3500 rpm for 10 minutes. The test compound was added to 80 μl of [^14 C] serotonin-labeled platelets in plastic test tubes, and the mixture was incubated for 2 minutes. PAF (1×10^-9 M) was then added to the reaction mixture and incubated for additional 2 minutes at which time 10 μl of cold formaldehyde was added to stop the reactions. The tubes were immediately cooled to 4° C. and centrifuged at 12000 rpm for 2 minutes. The supernatants (80 μl) were assayed for percentage of [^14 C] serotonin release by the conventional methods of measuring ^14 C counts.

[2] = target: T1, PAF receptor (rabbit platelet membranes) (Oryctolagus cuniculus, UniProt G1TEI7); experiment: PAF Receptor Binding Assay; conditions: 0.6 nM [^3 H]C18 -PAF, 60 minutes, room temperature, calculated as IC50/2
T1 construct: Rabbit platelets were prepared by centrifugation and washing; tissue Pel-Freez (Rogers, AR); host or cells: rabbit platelets (washed, from citrated whole blood; lysed membranes)
T1 sequence (G1TEI7 1-342): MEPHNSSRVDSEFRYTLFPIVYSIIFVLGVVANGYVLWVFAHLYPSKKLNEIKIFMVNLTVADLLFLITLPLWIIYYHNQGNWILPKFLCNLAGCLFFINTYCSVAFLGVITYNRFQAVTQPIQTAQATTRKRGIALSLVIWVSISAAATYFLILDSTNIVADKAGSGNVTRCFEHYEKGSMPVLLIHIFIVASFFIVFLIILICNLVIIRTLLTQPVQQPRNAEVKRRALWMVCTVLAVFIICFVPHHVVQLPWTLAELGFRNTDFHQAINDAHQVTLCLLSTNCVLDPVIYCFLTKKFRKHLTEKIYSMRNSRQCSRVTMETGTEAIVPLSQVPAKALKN
Experimental: PAF Receptor Binding Assay Citrated whole rabbit blood was obtained from Pel-Freez(Rogers, AR). Rabbit platelets were prepared by centrifugation and washing. The platelets were lysed by freeze-thawing and sonification; Platelet membranes were prepared by centrifugation and washing. Final membrane preparation were stored frozen in 10 mM Tris/5 mM MgCl2 /2 mM EDTA (TME buffer, pH 7.0) with 0.25M sucrose added for membrane stabilization. […] The final volume of the assay was 100 μl. […] The […] and removed. The bound radioactivity was quantitated with a Berthold TLC-Linear Analyzer model LB2842. […] Experiments were repeated at least once. […] Ki values of inhibitory binding constants were calculated according to the methods of the literature[Cheng et al., Biochem.

[3] = tested on: PAF-induced platelet aggregation, rabbit platelet-rich plasma; experiment: Inhibitory action on PAF-induced platelet aggregation; type: cell-based, rabbit (New Zealand white); conditions: Oryctolagus cuniculus, rabbit PRP, PAF 5×10^-9 M, 37° C.
Experimental: Inhibitory action on PAF-induced platelet aggregation Blood was collected from the […] of conscious New Zealand white male rabbits weighing 2 to 3 kg using citric acid as an anticoagulant (one volume pan of 3% citric acid relative to 9 volume parts of the whole blood). […] PRP was diluted with PPP to adjust the number of platelets to about 3×10^5 /μl. […] Platelet aggregation was then examined by means of turbidimetry [Born, Nature, 194, 927(1962)] with dual channel aggegometer (Chrono-Log. Corp., Havertown, Pa.). As the control, physiological saline without test sample was used. The platelet aggregation inhibiting activities of the test sample are expressed as IC50, that is the concentration of the compound at which 50% of the aggregation is inhibited.

Row | Structure (SMILES) | Ki [2] | IC50 [3] | inhibition at 0.2 µM [1] | inhibition at 0.05 µM [1]
1 | CCCCCCCCCCCCCCCCOCC1(COC(=O)CCCCC[n+]2ccccc2)COC1 [Example 10, N-[5-[[[3-[(Hexadecyloxy)methyl]-3-oxetanyl]methoxy]carbonyl]pentyl]pyridinium bromide] | – | – | 86% | 43%
2 | CCCCCCCCCCCCCCCCCCNC(=O)OC[C@H]1C[C@H](COC(=O)N(Cc2cccc[n+]2CC)C(C)=O)S1 (relative stereo) [Example 27, trans-2-[[N-Acetyl-N-[[[4-[[(Octadecylcarbamoyl)oxy]methyl]-2-thietanyl]methoxy]carbonyl]amino]methyl]-1-ethyl-pyridinium chloride] | 4.3 nM | 57 nM | – | –
3 | CCCCCCCCCCCCCCCCCCNC(=O)OCC1(COC(=O)CCCCC[n+]2ccccc2)COC1 [Example 12, N-[5-[[[3-[[(Octadecylcarbamoyl)oxy]methyl]-3-oxetanyl]methoxy]carbonyl]pentyl]pyridinium bromide] | – | – | 94% | 58%
4 | CCCCCCCCCCCCCCCCCCNC(=O)OC[C@H]1C[C@H](COC(=O)N(Cc2cccc[n+]2CC)C(C)=O)O1 (relative stereo) [Example 5, trans-2-[[N-Acetyl-N-[[[4-[[(octadecylcarbamoyl)oxy]methyl]-2-oxetanyl]methoxy]carbonyl]amino]methyl]-1-ethyl-pyridinium iodide] | – | – | 97% | –
5 | CCCCCCCCCCCCCCCCOCC1(COC(=O)CCCC[n+]2cccc3ccccc32)CSC1 [Example 42, N-[4-[[[3-[(Hexadecyoxy)methyl]-3-thietanyl]methoxy]carbonyl]butyl]quinolinium bromide] | – | 658 nM | – | –
6 | CCCCCCCCCCCCCCCCCCNC(=O)OCC1(COC(=O)N(Cc2cccc[n+]2CC)C(C)=O)CS(=O)(=O)C1 [Example 38, 2-[[N-Acetyl-N-[[[3-[[(octadecylcarbamoyl)oxy]methyl]thietane 1,1-dioxide-3-yl]methoxy]carbonyl]amino]methyl]-1-ethyl-pyridinium iodide] | 278 nM | 178 nM | – | –
7 | CCCCCCCCCCCCCCCCCCNC(=O)OC[C@H]1C[C@H](COC(=O)CCCC[n+]2cccc3ccccc32)S1 (relative stereo) [Example 34, trans-N-[4-[[[4-[[(Octadecylcarbamoyl)oxy]methyl]-2-thietanyl]methoxy]carbonyl]butyl]quinolinium bromide] | – | 350 nM | – | –
8 | CCCCCCCCCCCCCCCCCCNC(=O)OCC1(COC(=O)N(Cc2cccc[n+]2CC)C(C)=O)C[S+]([O-])C1 (stereo not drawn) [Example 37, 2-[[N-Acetyl-N-[[[3-[[(octadecylcarbamoyl)oxy]methyl]thietane 1-oxide-3-yl]methoxy]carbonyl]amino]methyl]-1-ethyl-pyridinium iodide] | 9.3 nM | 125 nM | – | –
9 | CCCCCCCCCCCCCCCCCCNC(=O)OC[C@@H]1C[C@H](COC(=O)N(Cc2cccc[n+]2CC)C(C)=O)S1 (relative stereo) [Example 28, cis-2-[[N-Acetyl-N-[[[4-[[(octadecylcarbamoyl)oxy]methyl]-2-thietanyl]methoxy]carbonyl]amino]methyl]-1-ethyl-pyridinium chloride] | 9.8 nM | 61 nM | – | –
10 | CCCCCCCCCCCCCCCCCCNC(=O)OC[C@H]1C[C@H](COCCCC[n+]2cccc3ccccc32)S1 (relative stereo) [Example 35, trans-N-[4-[[4-[[(Octadecylcarbamoyl)oxy]methyl]-2-thietanyl]methoxy]butyl]quinolinium bromide] | – | 275 nM | – | –
11 | CCCCCCCCCCCCCCCCCCNC(=O)OCC1(COC(=O)CCCC[n+]2ccsc2)CCCC1 [Example 22, 3-[4-[[[1-[[(Octadecylcarbamoyl)oxy]methyl]-1-cyclopentyl]methoxy]carbonyl]butyl]thiazolium bromide] | – | 1140 nM | – | –

The remaining compounds from weak to strong by IC50 [3], led by results:

Row | Ki [2] | IC50 [3] | Structure (SMILES) | inhibition at 0.2 µM [1] | inhibition at 0.05 µM [1]
12 | 3.8 nM | 573 nM | CCCCCCCCCCCCCCCCCCNC(=O)OCC1(COC(=O)N(Cc2cccc[n+]2CC)C(C)=O)CCCC1 [Example 16, 2-[[N-Acetyl-N-[[[1-[[(octadecylcarbamoyl)oxy]methyl]-1-cyclopentyl]methoxy]carbonyl]amino]methyl]-1-ethyl-pyridinium iodide] | – | –
13 | 1.2 nM | 350 nM | CCCCCCCCCCCCCCCCNC(=O)OCC1(COC(=O)N(Cc2cccc[n+]2CC)C(C)=O)CCCC1 [Example 20, 2-[[N-Acetyl-N-[[[1-[[(hexadecylcarbamoyl)oxy]methyl]-1-cyclopentyl]methoxy]carbonyl]amino]methyl]-1-ethyl-pyridinium iodide] | – | –
14 | 110 nM | 219 nM | CCCCCCCCCCCCCCCCOCC1(COC(=O)N(Cc2cccc[n+]2CC)C(C)=O)COC1 [Example 9, 2-[[N-Acetyl-N-[[[3-[(hexadecyloxy)methyl]-3-oxetanyl]methoxy]carbonyl]amino]methyl]-1-ethyl-pyridinium iodide] | – | –
15 | 9.4 nM | 95 nM | CCCCCCCCCCCCCCCCCCNC(=O)OCC1(COC(=O)CCCC[n+]2cccc3ccccc32)CCCC1 [Example 23, N-[4-[[[1-[[(Octadecylcarbamoyl)oxy]methyl]1-cyclopentyl]methoxy]carbonyl]butyl]quinolinium bromide] | – | –
16 | 95 nM | 93 nM | CCCCCCCCCCCCCCCCNC(=O)OCC1(COC(=O)N(Cc2cccc[n+]2CC)C(C)=O)COC1 [Example 8, 2-[[N-Acetyl-N-[[[3-[[(hexadecylcarbamoyl)oxy]methyl]-3-oxetanyl]methoxy]carbonyl]amino]methyl]-1-ethyl-pyridinium iodide] | – | –
17 | – | 84 nM | CCCCCCCCCCCCCCCCCCNC(=O)OC[C@@H]1C[C@@H](COC(=O)N(Cc2cccc[n+]2CC)C(=O)c2ccccc2OC)S1 (relative stereo) [Example 30] | – | –
18 | – | 69 nM | CCCCCCCCCCCCCCCCNC(=O)OC[C@@H]1C[C@@H](COC(=O)N(Cc2cccc[n+]2CC)C(=O)c2ccccc2OC)S1 (relative stereo) [Example 31, trans-2-[[N-(2-Methoxy)benzoyl-N-[[[4-[[(hexadecylcarbamoyl)oxy]methyl]-2-thietanyl]methoxy]carbonyl]amino]methyl]1-ethyl-pyridinium chloride] | – | –
19 | 30 nM | 57 nM | CCCCCCCCCCCCCCCCCCNC(=O)OCC1(COC(=O)CCCCC[n+]2cccc3ccccc32)CSC1 [Example 41, N-[5-[[[3-[[(Octadecylcarbamoyl)oxy]methyl]-3-thietanyl]methoxy]carbonyl]pentyl]quinolinium bromide] | – | –
20 | 4.3 nM | 56 nM | CCCCCCCCCCCCCCCCCCNC(=O)OC[C@H]1C[C@H](COC(=O)N(Cc2cccc[n+]2CC)C(C)=O)C1 [Example 19, trans-2-[[N-Acetyl-N-[[[3-[[(octadecylcarbamoyl)oxy]methyl]-1-cyclobutyl]methoxy]carbonyl]amino]methyl]-1-ethyl-pyridinium iodide] | – | –
21 | 20 nM | 52 nM | CCCCCCCCCCCCCCCCOC[C@H]1C[C@H](COC(=O)N(Cc2cccc[n+]2CC)C(C)=O)S1 (relative stereo) [Example 32, trans-2-[[N-Acetyl-N-[[[4-[(hexadecyloxy)methyl]-2-thietanyl]methoxy]carbonyl]amino]methyl]-1-ethyl-pyridinium chloride] | – | –
22 | 35 nM | 29 nM | CCCCCCCCCCCCCCCCCCNC(=O)OC[C@@H]1C[C@@H](COC(=O)N(Cc2cccc[n+]2CC)C(C)=O)N1C(C)=O (relative stereo) [Example 43, 2-[[N-Acetyl-N-[[[4-[[(octadecylcarbamoyl)oxy]methyl]-1-acetylazetidine-2-yl]methoxy]carbonyl]amino]methyl]-1-ethyl-pyridinium chloride] | – | –
23 | 9.8 nM | 21 nM | CCCCCCCCCCCCCCCCNC(=O)OC[C@H]1C[C@H](COC(=O)N(Cc2cccc[n+]2CC)C(C)=O)S1 (relative stereo) [Example 29, trans-2-[[N-Acetyl-N-[[[4-[[(hexadecylcarbamoyl)oxy]methyl]-2-thietanyl]methoxy]carbonyl]amino]methyl]-1-ethyl-pyridinium chloride] | – | –
